Measurements published in patent US20110251258A1, “RNAI CONSTRUCTS AND USES THEREOF” (RXi Pharmaceuticals Corporation, priority 2008, published 2011).
pEC50: −log10 of the molar value.

Experiments:
MAP4K4 = system: MAP4K4
Method: (§1) All constructs were transfected into HEK293 cells using the LIPOFECTAMINE™ RNAiMAX reagent (Invitrogen Corp., Carlsbad, Calif.) according to manufacture's instructions. In brief, RNA was diluted to a 12× concentration and then combined with a 12× concentration of LIPOFECTAMINE™ RNAiMAX to complex. The RNA and transfection reagent were allowed to complex at room temperature for 20 minutes to yield a 6× concentration. While complexing, HEK293 cells were washed, trypsinized and counted. The cells were diluted to a concentration recommended by the manufacturer which was at 1×10^5 cells/ml. When RNA has completed complexing with the RNAiMAX transfection reagent, 20 μl of the complexes were added to the appropriate well of the 96-well plate in triplicate. Cells were added to each well (100 μl volume) to make the final cell count per well at 1×10^4 cells/well. The volume of cells diluted the 6× concentration of complex to 1× which was equal to 50, 25, or 10 nM. Cells were incubated for 48 hours under normal growth conditions. After 48 hour incubation, cells were lysed and gene silencing activity was measured using the Panomics […]™ assay which employs bDNA hybridization technology. The assay was carried out according to manufacturer's instructions.

PPIB = details: for PPIB gene silencing activity (in words): transfection assay as in Example I; for relative expression of PPIB remaining after transfection: HEK293, 48 hour incubation, even at 10 nM, compared to negative control 10837 and UTC; for activity at sub-nano molar concentrations / target gene expression at about 0.1 nM: HEK293, with RISC-Free filler; for pEC50: PPIB expression, HEK293, 48 hours after transfection, dose response with RISC-Free filler; for EC50 fold higher than that of the 25-mer dsRNA 10460: from the EC50 table of Example III
Source text: Positive and negative controls were also included. As shown and described in FIG. 4, construct prepared from single-stranded polynucleotide 10837 (SEQ ID NO: 6) was used as a negative control. […] This structure, denoted as construct 10460 (5′P-mCmUmCm[…]mAmAmAmA-3′, SEQ ID NO: 7) in this example, contains 2′-O-methyl modified bases on 4 of the outermost positions at both ends of the sequence.
as §1
Active RNAi construct stocks at 100 or 10 μM were used to make a 3 μM working dilution in RNA Buffer (1:33.333 dilution) by mixing 30 μl of a 10 μM stock+70 μl RNA Buffer. Diluted RNAi compound plates were prepared in a 96 well plate of 0.2 mL PCR tubes as follows:
a. 50 nM Condition (dilute RNA compound to 12× or to 600 nM in OptiMEM, Reduced Serum Medium, Invitrogen Corp., Carlsbad, Calif.): • i. Add 80 μl of OptiMEM to each well • ii. Add 20 μl of working stock RNAi compound (3 μM) to each well with OptiMEM
b. 25 nM Condition (dilute RNA to make 12× or to 300 nM in OptiMEM): • i. Add 50 μl of OptiMEM to each well • ii.
c. 10 nM Condition (dilute RNA compound to 12× or to 120 nM in OptiMEM): • i. Add 30 μl of OptiMEM to each well • ii.
A bulk amount of diluted RNAiMAX and LIPOFECTAMINE™ were made as follows:
a. 1,470 μl Opti-MEM+30 μl RNAiMAX
c. Combine RNAiMAX and Opti-MEM, Lipofectamine and Opti-MEM, mix gently.
Diluted RNAiMAX or LIPOFECTAMINE™ (35 μl each) was added to each 0.2 ml PCR well. Then, 35 μl of diluted RNAi compound from the RNA plate (above) was also added to each well. Each well contained enough for duplicates at a given dose. Each reaction mixture was gently mixed by pipetting up and down 3 times. The mixture was allowed to complex for at least 15 minutes at room temperature. Meanwhile, a suspension of cells at 1×10^5 cells/ml was prepared. After 15 minutes, 20 μl of complexed RNAi was added to each tissue-culture treated 96-well using a multi-channel pipettor. The prepared cell suspension was added to each reaction at a final volume of 1×10^4 cells (100 μl of cell suspension) and allowed to incubate for 48 hours at 37° C., 10% CO2.
Constructs 10460 (SEQ ID NO: 7, see above, a 25-bp double-stranded RNA with blunt ends) and 10167.2 (a 21-bp double-stranded RNA) were included as positive controls. Untransfected control (UTC) was included as a negative control. Transfections were performed as in Example I or according to the manufactures' recommendation. Each construct (except for the UTC) was transfected at a final concentration of about 50 nM, 25 nM, 10 nM, 5 nM, and 1 nM.
The RISC-Free filler is a commercially available control.

Row | Substance | PPIB gene silencing activity (in words) (PPIB) | PPIB silencing potency compared with another construct (PPIB) | pEC50 (PPIB) | other results
1 | U.A.G.A.C.U.U.C.C.A.C.A.G.A.I.I.U. I.I.A.A.G.U.C.U.A [compound 11993] |  |  |  | MAP4K4 gene silencing activity (in words) (MAP4K4): ineffective
2 | SS: G.G.A.A.A.G.A.C.U.G.U.U.C.C.A.A. A.A.A AS: U.U.U.U.U.G.G.A.A.C.A.G.U. [compound 12000, reference compound] | essentially inactive |  |  | 
3 | U.U.A.C.A.C.G.A.U.G.G.A.A.U.U.U. G.C.U.U.U.C.C.A.U.C.G.U.G.U.A.A. [compound 12003] |  | less effective |  | 
4 | U.U.A.C.A.C.G.A.U.G.G.A.A.U.U.U. G.C.U.C.C.A.U.C.G.U.G.U.A.A [compound 12004] |  | less effective |  | 
5 | U.U.U.U.U.G.G.A.A.C.A.G.U.C.U.U. U.C.C.U.G.U.U.C.C.A.A.A.A.A [compound 11976] |  | more potent that those designed based on the 10463 sequence (12003 and 12004) |  | 
6 | U.U.U.U.U.G.G.A.A.C.A.G.U.C.U.U. U.C.C.A.C.U.G.U.U.C.C.A.A.A.A.A [compound 11975] |  | more potent that those designed based on the 10463 sequence (12003 and 12004) |  | 
7 | UUUUUGGAACAGUCUUUCCACUGUUCCAAAAA [compound 10833] | can inhibit PPIB expression |  | 9.22 | relative expression of PPIB remaining after transfection (PPIB): dramatically decrease PPIB expression; activity at sub-nano molar concentrations (PPIB): remained partially active; target gene expression at about 0.1 nM (PPIB): at least negative control level; EC50 fold higher than that of the 25-mer dsRNA 10460 (PPIB): about 60 fold
8 | UUUUUGGAACAGUCUUUCCUGUUCCAAAAA [compound 10834] | can inhibit PPIB expression |  | 8.81 | relative expression of PPIB remaining after transfection (PPIB): dramatically decrease PPIB expression; activity at sub-nano molar concentrations (PPIB): remained partially active; target gene expression at about 0.1 nM (PPIB): at least negative control level; EC50 fold higher than that of the 25-mer dsRNA 10460 (PPIB): about 110 fold
9 | SS: P.mC.mU.mC.mU.U.C.G.G.A.A.A.G. A.C.U.G.U.U.C.C.A.mA.mA.mA.mA AS: U.U.U.U.U.G.G.A.A.C.A.G.U.C.U.U. U.C.C.G.A.A.G.A.G [compound 10460, reference compound] |  | more potent than the dsRNA construct 10463 | 10.85 | 
